Laboratory results published in patent US7700584B2 (Hangzhou Minsheng Pharmaceuticals Co., Ltd., priority 2004, dated 2010).

Experiments:
[1] = system: Hela human cervical carcinoma; assay: In vitro inhibition rate to tumor cells (MTT), Hela; format: cell-based; conditions: 50 μg/ml
[2] = system: LLC mouse Lewis lung carcinoma; assay: In vitro inhibition rate to tumor cells (MTT), LLC; format: cell-based; conditions: 50 μg/ml
[3] = system: U-937 human histocytic lymphoma; assay: In vitro inhibition rate to tumor cells (MTT), U-937; format: cell-based; conditions: 50 μg/ml
[4] = system: HL-60 human promyelocytic leukemia; assay: In vitro anti-tumor IC50 (MTT), HL-60; format: cell-based; conditions: Homo sapiens, HL-60; Table 4; read-out: IC50 (ug/ml) against tumor cell lines, HL-60
[5] = system: 293 cells; assay: Cell status of 293 cells treated with sample alone (herpes virus screening)
[6] = system: MCF-7 human mammary adenocarcinoma; assay: In vitro inhibition rate to tumor cells (MTT), MCF-7; format: cell-based; conditions: 50 μg/ml
[7] = system: U-937 human histocytic lymphoma; assay: In vitro anti-tumor IC50 (MTT), U-937; format: cell-based; conditions: Homo sapiens, U-937; Table 4; read-out: IC50 (ug/ml) against tumor cell lines, U-937
[8] = system: Hela human cervical carcinoma; assay: In vitro anti-tumor IC50 (MTT), Hela; format: cell-based; conditions: Homo sapiens, HeLa; Table 4; read-out: IC50 (ug/ml) against tumor cell lines, Hela
[9] = target: T1, HIV-1 reverse transcriptase (Human immunodeficiency virus type 1 group M subtype B, UniProt P04585); assay: Screening for the in vitro activity against the HIV-1 reverse transcriptase; format: biochemical; conditions: IC50, initial concentration 200 μg/ml
T1 construct: purchased
In short: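 Colorimetric RT activity assay: HIV-1 RT incorporates Biotin-dUTP into an immobilized template, detected with streptavidin-HRP at OD450. Samples were dissolved in DMSO, then serially diluted 5× in water to five concentrations, and incubated with enzyme and Biotin-dUTP in reaction buffer.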

[10] = system: Bel-7402 human hepatic carcinoma; assay: In vitro inhibition rate to tumor cells (MTT), Bel-7402; format: cell-based; conditions: 50 μg/ml
[11] = system: HL-60 human promyelocytic leukemia; assay: In vitro inhibition rate to tumor cells (MTT), HL-60; format: cell-based; conditions: 50 μg/ml
[12] = target: T2, HIV-1 integrase (HIV-1 IN) (Human immunodeficiency virus type 1 group M subtype B, UniProt P04585); assay: Screening for the activity against HIV-1 integrase; format: biochemical; conditions: initial concentration 100 μg/ml
T2 construct: a purified HIV-1 integrase was added into each well; purchased
In short: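 Purified HIV-1 integrase with plate-bound 30-nt donor oligonucleotide and biotinylated 20-nt target oligonucleotide; samples tested at four 5-fold serial dilutions. Strand-transfer product detected by ELISA with biotin-labeled alkaline phosphatase, read as OD450.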

[13] = system: A-549 human lung adenocarcinoma; assay: In vitro inhibition rate to tumor cells (MTT), A-549; format: cell-based; conditions: 50 μg/ml

C=C1CC2(OS(=O)(=O)[O-])OC3(CC2C(C)C)C(C)CCC13.[Na+] (centres unmarked) [Compound 21, Curcumol sodium sulfonate]
inhibition rate, Results (%) Hela ([1]; Table 1): 91.69%
inhibition rate, Results (%) Hela ([1]; Table 2 (repeated screening)): 90.11%
inhibition rate, Results (%) Hela ([1]; Table 3 (repeated screening)): 91.67%
inhibition rate, Results (%) LLC ([2]; Table 1): 10.47%
inhibition rate, Results (%) LLC ([2]; Table 2 (repeated screening)): 1.89%
inhibition rate, Results (%) LLC ([2]; Table 3 (repeated screening)): 7.58%
inhibition rate, Results (%) U-937 ([3]; Table 1): 92.04%
inhibition rate, Results (%) U-937 ([3]; Table 2 (repeated screening)): 89.46%
inhibition rate, Results (%) U-937 ([3]; Table 3 (repeated screening)): 91.45%
IC50 [4]: 1.3 µg/mL
cell status of 12 and 24 h ([5]; 12.5 μg/ml): Good
cell status of 12 and 24 h ([5]; 25 μg/ml): Good
cell status of 12 and 24 h ([5]; 50 μg/ml): Good
cell status of 12 and 24 h ([5]; 100 μg/ml): Good
cell status of 12 and 24 h ([5]; 200 μg/ml): Normal
Cytopathy and cell status, Sample ([5]; 200 μg/ml, 24 hrs): Normal
inhibition rate, Results (%) MCF-7 ([6]; Table 1): 87.56%
inhibition rate, Results (%) MCF-7 ([6]; Table 2 (repeated screening)): 85.23%
inhibition rate, Results (%) MCF-7 ([6]; Table 3 (repeated screening)): 87.58%
IC50 [7]: 0.89 µg/mL
IC50 [8]: 0.75 µg/mL
IC50 [9]: > 591 µM
inhibition rate, Results (%) Bel-7402 ([10]; Table 1): 5.36%
inhibition rate, Results (%) Bel-7402 ([10]; Table 2 (repeated screening)): 2.13%
inhibition rate, Results (%) Bel-7402 ([10]; Table 3 (repeated screening)): 3.12%
inhibition rate, Results (%) HL-60 ([11]; Table 1): 93.12%
inhibition rate, Results (%) HL-60 ([11]; Table 2 (repeated screening)): 90.89%
inhibition rate, Results (%) HL-60 ([11]; Table 3 (repeated screening)): 89.79%
IC50 [12]: — (indicates that the initial concentration of the sample had a inhibition rate of less than 50% against HIV-1 IN.)
inhibition rate, Results (%) A-549 ([13]; Table 1): 26.42%
inhibition rate, Results (%) A-549 ([13]; Table 2 (repeated screening)): 20.01%
inhibition rate, Results (%) A-549 ([13]; Table 3 (repeated screening)): 1.23%
